This is an account of results in article PMC4536133 (Antiviral research, 2015).

In assay [1] the test system is HSV-1. Briefly: Plaque assay of supernatant of HSV-1 infected Vero cells. In kind it is cell-based, herpes simplex virus type 1 (KOS) in Vero cells.
The test system of assay [2] is HSV-1. Briefly: qPCR for HSV-1 DNA copy number in iPSC-neurons. In kind it is cell-based, herpes simplex virus type 1 (KOS) in human iPSC-neurons. Particulars: acutely infected iPSC-neurons, 24hpi, 50 μM; untreated 3,461,970. (In general: In qPCR the cycle at which signal appears reflects the starting amount.)
The subject of assay [3] is HSV-1. Briefly: FISH analysis of HSV-1 viral DNA in infected cells. The following applies: HSV-1 infected cells. In kind it is cell-based, herpes simplex virus type 1.
A further assay deals with HSV-1 ICP0 and ICP4. Briefly: Immunocytochemistry of HSV-1 immediate early genes ICP0 and ICP4. In kind it is cell-based, herpes simplex virus type 1. The following applies: infected cells.
Assay [4] concerns HSV-1. Briefly: Reactivation of quiescent HSV-1 infection in iPSC-neurons, flow cytometry. In kind it is cell-based, herpes simplex virus type 1 (KOS) in human iPSC-neurons. Particulars: compared to vehicle.
Assay [5] concerns HSV-1. Briefly: Plaque assay of supernatant of reactivated iPSC-neurons titrated on Vero cells. In kind it is cell-based, herpes simplex virus type 1 (KOS) in human iPSC-neurons. Particulars: 5BVdU+IFN-α then drug 48h, NaB reactivation.
The subject of the next assay is VZV. Description: VZV infection of ARPE-19 cells, luciferase activity. In kind it is cell-based. Particulars: PAA.

Take `Nc1nc2c(ncn2COCCO)c(=O)[nH]1` [ACV, Acyclovir]: in the assay on HSV-1 [1] (50 μM), the “infectious particles in supernatant of treated infected cultures (plaque assay)” value (“infectious particles in supernatant” for short) is “undetectable”. Moreover, in the assay on HSV-1 [2], the “number of copies of viral DNA in 5 ng of total DNA” value is recorded as 483 copies. Moreover, the “viral DNA copy number by FISH” value in the assay on HSV-1 [3] is given as “substantial reduction”. In addition, the “expression of HSV-1 immediate early genes ICP0 and ICP4” value in the assay on HSV-1 ICP0 and ICP4 was “markedly reduced expression”. Further, the “mean intensity of fluorescence (MFI) after reactivation” value with HSV-1 [4] was “lowered”. For the same compound, in the assay on HSV-1 [5], the “infectious viral particles in supernatant after reactivation” value is recorded as “no detectable infectious viral particles”.
As for `CO/C1=C\C(C)=C\[C@@H](C)[C@@H](O)[C@@H](C)C/C(C)=C/C=C/[C@H](OC)[C@@H]([C@@H](C)[C@@H](O)[C@H](C)[C@@]2(O)C[C@@H](O)[C@H](C)[C@@H](C(C)C)O2)OC1=O` [BFLA, bafilomycin A1], in the assay with HSV-1 [1] (BFLA 0.1 μM), the “infectious particles in supernatant” value is reported as “undetectable”.
For the compound `CCN(CC)CCCC(C)Nc1ccnc2cc(Cl)ccc12` (centres unmarked) [CQ, chloroquine], the “infectious particles in supernatant” value in the assay with HSV-1 [1] (50 μM) is “undetectable”.
For `O=C(O)CP(=O)(O)O` [PAA, phosphonoacetic acid], the “viral DNA copy number by FISH” value with HSV-1 [3] is given as “substantial reduction”. Moreover, in the assay with HSV-1 ICP0 and ICP4, the “expression of HSV-1 immediate early genes ICP0 and ICP4” value was “markedly reduced expression”. In addition, the “inhibition of VZV infection” value in the assay with VZV was “effectively inhibited”.
